The source of these data is patent publication US9801922B2, “Compositions and methods of treating cancer” (UNIVERSITY OF IOWA RESEARCH FOUNDATION, priority 2011, dated 2017).

Data set [1] deals with Hec50co human endometrial cancer cells. The settings on record: 2 uM, 24 hrs.
Description: Hec50co human endometrial cancer cells were treated with 0.5 μM, 1.0 and 2.0 μM azido-decylTPP and bis-TPP and incubated for 24 hrs. DMSO was added to control dishes to a final concentration of 0.1%. Following a 24 hr. incubation period, cells were plated at densities of 200, 400, 600, 800, 2,000, 5,000, and 10,000 cells per dish and incubated for 2 weeks. After incubation, cells were stained with Coomassie blue and counted under a light microscope. Survival fraction was calculated by dividing the number of colonies counted following treatment by the product of the number of cells plated and plating efficiency. Error bars represent uncertainties of N=2 experiments.
Data set [2] has as its system MB231 cells. The conditions noted are these: 24 hrs.
Description: MB231 cells were treated with 0.5 μM, 1.0 μM, and 2.0 μM azido-decylTPP and bis-TPP and incubated for 24 hrs. DMSO was added to control dishes to a final concentration of 0.1%. Following a 24 hr. incubation period, cells were plated at densities of 200, 400, 600, 800, and 2,000 cells per dish and incubated for 2 weeks. After incubation, cells were stained with Coomassie blue and counted under a light microscope. Survival fraction was calculated by dividing the number of colonies counted following treatment by the product of the number of cells plated and plating efficiency.
In data set [3] the test system is A375 melanoma cells. Put plainly: MTT survival fraction analysis, A375. Format: cell-based.

Read-outs that look alike come from different tables or passages of the source.

Turning to “decane-1,10-diylbis(triphenylphosphonium) [bis-DTPP]”, the survival fraction in data set [1] was determined as 66%; in data set [2] (0.5 uM), 90%; in data set [2] (2 uM), 82%.

Turning to `[N-]=[N+]=NCCCCCCCCCC[P+](c1ccccc1)(c1ccccc1)c1ccccc1` [azido-DTPP, (10-azidodecyl)triphenylphosphonium], the results for the survival fraction in data set [1], in data set [2] (0.5 uM) and in data set [2] (2 uM) were 24%, 55% and 10%, respectively.

On to `CCCCC[P+](c1ccccc1)(c1ccccc1)c1ccccc1` [pentyl-TPP], for which the “cytotoxicity in the absence of BSO, in words” value in data set [3] is “no effect”. Further, the survival fraction in data set [3] (in the presence of BSO, 2 μM) worked out at 70%. For the same molecule, the “cytotoxicity in the presence of BSO, in words” value in data set [3] (up to 2 μM) is given as “little cytotoxicity”.
